Values of other authors in patent publication US20060068011A1, “Simultaneous encapsulation technique for use in pharmaceutical compositions” (Wyeth, priority 2004, published 2006).

Compound: COc1ccccc1OCC(O)CO (stereo not shown) [Guaifenesin, guaifenesin]
- solubility in water: sparingly water soluble
